Test results published in paper PMC10502144, “Anti-methicillin-resistant Staphylococcus aureus activity and safety evaluation of 14-O-[(5-ethoxycarbonyl-4,6-dimethylpyrimidine-2-yl) thioacetyl] mutilin (EDT)” (Scientific Reports, 2023).
≈ marks a conversion by molar mass, not a printed value. Where two headings read alike, the source gives them in different places.

How the values were obtained:
[1] = system: GFP expression in S. aureus ATCC 29,213; assay: Green fluorescent protein (GFP) inhibition assay; type: cell-based, Staphylococcus aureus; settings: 1 and 4 μM, co-incubation 4 h, fluorescence microscopy
Protocol: The inhibition assay against GFP expression was performed according to our previous report[41] with minor modification. Plasmids carried erythromycin resistant genes were labeled with GFP and electrotransformed into S. aureus. After screenings using erythromycin, S. aureus strain expressing GFP was then obtained and grown to mid-logarithmic phase, followed by collecting centrifugally and re-suspending with PBS buffer. The obtained suspensions were co-incubated with EDT and tiamulin with the final concentrations of 1 and 4 μM, respectively, for 4 h at 37 °C. The cells were subsequently collected by centrifugation to perform imaging using fluorescence microscopy after re-suspending with PBS buffer.

[2] = system: MRSA-337371; assay: microbe, parasite or virus in culture; type: cell-based, methicillin-resistant Staphylococcus aureus; settings: for MIC: Staphylococcus aureus, MRSA
Protocol: We performed resistance induction tests on EDT and tiamulin which was used as a referent drug. […] Finally, MRSA was cultured for 30 generations with the same procedure. At the 31st generation, drugs were removed until 40th generation and MICs were determined in each generation.

[3] = system: clinical isolates of MRSA; assay: MIC by broth serial-dilution against 48 clinical isolates of MRSA; type: cell-based, methicillin-resistant Staphylococcus aureus; settings: Staphylococcus aureus, MRSA
Protocol: The tests against 48 clinical isolates of MRSA from dairy farms in 4 different provinces in China[37] were conducted in triplicate, using broth serial-dilution method in 96-well plates according to CLSI reference methods. Briefly, EDT and tiamulin fumarate used as referent drug were dissolved in 25% dimethyl sulfoxide (DMSO) to a solution with concentration of 64 μg/mL. The obtained 100 μL solutions were then added into the first column of the 96-well plate, and diluted to the tenth well with serial twofold dilutions. The last two wells were used as positive controls. The 100 μL bacterial suspension was diluted in MHB to give a final organism density of to 10^5 ~ 10^6 colony-forming unit (CFU) per 1 mL and added to all the wells, followed by incubating at 37 °C for 24 h. […] The results were expressed as an average of the MICs obtained from three independent experiments.

C=CC1(C)CC(OC(=O)CSc2nc(C)c(C(=O)OCC)c(C)n2)C2(C)C(C)CCC3(CCC(=O)C32)C(C)C1O (stereo not drawn) [EDT, 14-O-[(5-ethoxycarbonyl-4,6-dimethylpyrimidine-2-yl)thioacetyl] mutilin]
inhibition of GFP expression (green fluorescence intensity) [1]: effectively inhibited the expression of GFP | increase of MIC ([2]; 30 generations under the subinhibitory concentration (1/4 MIC)): fourfold | MIC ([2]; 24 h, read-out: MIC in the resistance development study, day 1): 0.0313 µg/mL (≈ 0.0546 µM) | MIC ([2]; 48 h, read-out: MIC in the resistance development study, day 2): 0.0313 µg/mL (≈ 0.0546 µM) | MIC ([2]; 72 h, read-out: MIC in the resistance development study, day 3): 0.0313 µg/mL (≈ 0.0546 µM) | MIC ([2]; 96 h, read-out: MIC in the resistance development study, day 4): 0.0313 µg/mL (≈ 0.0546 µM) | MIC ([2]; 120 h, read-out: MIC in the resistance development study, day 5): 0.0313 µg/mL (≈ 0.0546 µM) | MIC ([2]; 144 h, read-out: MIC in the resistance development study, day 6): 0.0313 µg/mL (≈ 0.0546 µM) | MIC ([2]; 168 h, read-out: MIC in the resistance development study, day 7): 0.0313 µg/mL (≈ 0.0546 µM) | MIC ([2]; 192 h, read-out: MIC in the resistance development study, day 8): 0.0313 µg/mL (≈ 0.0546 µM) | MIC ([2]; 216 h, read-out: MIC in the resistance development study, day 9): 0.0313 µg/mL (≈ 0.0546 µM) | MIC ([2]; 240 h, read-out: MIC in the resistance development study, day 10): 0.0313 µg/mL (≈ 0.0546 µM) | MIC ([2]; 264 h, read-out: MIC in the resistance development study, day 11): 0.0313 µg/mL (≈ 0.0546 µM) | MIC ([2]; 288 h, read-out: MIC in the resistance development study, day 12): 0.0625 µg/mL (≈ 0.109 µM) | MIC ([2]; 312 h, read-out: MIC in the resistance development study, day 13): 0.0625 µg/mL (≈ 0.109 µM) | MIC ([2]; 336 h, read-out: MIC in the resistance development study, day 14): 0.0313 µg/mL (≈ 0.0546 µM) | MIC ([2]; 360 h, read-out: MIC in the resistance development study, day 15): 0.0313 µg/mL (≈ 0.0546 µM) | MIC ([2]; 384 h, read-out: MIC in the resistance development study, day 16): 0.0313 µg/mL (≈ 0.0546 µM) | MIC ([2]; 408 h, read-out: MIC in the resistance development study, day 17): 0.0625 µg/mL (≈ 0.109 µM) | MIC ([2]; 432 h, read-out: MIC in the resistance development study, day 18): 0.0625 µg/mL (≈ 0.109 µM) | MIC ([2]; 456 h, read-out: MIC in the resistance development study, day 19): 0.0625 µg/mL (≈ 0.109 µM) | MIC ([2]; 480 h, read-out: MIC in the resistance development study, day 20): 0.125 µg/mL (≈ 0.218 µM) | MIC ([2]; 504 h, read-out: MIC in the resistance development study, day 21): 0.125 µg/mL (≈ 0.218 µM) | MIC ([2]; 528 h, read-out: MIC in the resistance development study, day 22): 0.125 µg/mL (≈ 0.218 µM) | MIC ([2]; 552 h, read-out: MIC in the resistance development study, day 23): 0.125 µg/mL (≈ 0.218 µM) | MIC ([2]; 576 h, read-out: MIC in the resistance development study, day 24): 0.125 µg/mL (≈ 0.218 µM) | MIC ([2]; 600 h, read-out: MIC in the resistance development study, day 25): 0.125 µg/mL (≈ 0.218 µM) | MIC ([2]; 624 h, read-out: MIC in the resistance development study, day 26): 0.125 µg/mL (≈ 0.218 µM) | MIC ([2]; 648 h, read-out: MIC in the resistance development study, day 27): 0.125 µg/mL (≈ 0.218 µM) | MIC ([2]; 672 h, read-out: MIC in the resistance development study, day 28): 0.125 µg/mL (≈ 0.218 µM) | MIC ([2]; 696 h, read-out: MIC in the resistance development study, day 29): 0.125 µg/mL (≈ 0.218 µM) | MIC ([2]; MRSA-337371, MIC used to set 1×-8× MIC in the PAE test): 0.0313 µg/mL (≈ 0.0546 µM) | MIC ([2]; read-out: MIC in the resistance development study, day 30): 0.125 µg/mL (≈ 0.218 µM) | MIC ([2]; read-out: MIC in the resistance development study, day 31, drugs removed): 0.125 µg/mL (≈ 0.218 µM) | MIC ([2]; read-out: MIC in the resistance development study, day 32, drugs removed): 0.125 µg/mL (≈ 0.218 µM) | MIC ([2]; read-out: MIC in the resistance development study, day 33, drugs removed): 0.0625 µg/mL (≈ 0.109 µM) | MIC ([2]; read-out: MIC in the resistance development study, day 34, drugs removed): 0.0625 µg/mL (≈ 0.109 µM) | MIC ([2]; read-out: MIC in the resistance development study, day 35, drugs removed): 0.0313 µg/mL (≈ 0.0546 µM) | MIC ([2]; read-out: MIC in the resistance development study, day 36, drugs removed): 0.0313 µg/mL (≈ 0.0546 µM) | MIC ([2]; read-out: MIC in the resistance development study, day 37, drugs removed): 0.0313 µg/mL (≈ 0.0546 µM) | MIC ([2]; read-out: MIC in the resistance development study, day 38, drugs removed): 0.0313 µg/mL (≈ 0.0546 µM) | MIC ([2]; read-out: MIC in the resistance development study, day 39, drugs removed): 0.0313 µg/mL (≈ 0.0546 µM) | MIC ([2]; read-out: MIC in the resistance development study, day 40, drugs removed): 0.0313 µg/mL (≈ 0.0546 µM) | sensitivity of MRSA after removing drugs ([2]; after removing drugs and culturing for additional 10 generations): recovered the initial sensitivity | increase in the MIC values ([2]; at 22 generations): fourfold | MIC ([3]; read-out: MIC values against 48 strains, range over 48 clinical isolates of MRSA): 0.0313 to 0.0625 µg/mL (≈ 0.0546 to 0.109 µM) | inhibition at 0.0625 µg/mL ([3]; read-out: strains inhibited): 97.9% | MIC ([3]; strain CX1): 0.0313 µg/mL (≈ 0.0546 µM)
